Measurements taken from patent US11613538B2, “Method of inhibiting or reducing a viral infection” (PTC Therapeutics, Inc., priority 2009, dated 2023).
Converted amounts (≈) assume the structure as drawn. Marks after values point to notes of the source that are not given here.

What was measured:
[1] = tested on: murine kidney VEGF; assay: Mouse kidney VEGF levels in tumor-bearing mice; assay type: in vivo; conditions: 0.5 mg/kg (28 days) or 3 mg/kg (32 days); in words
Experimental: After mouse tumors reached 1500 mm^3, mice were sacrificed and tissues were collected at the time of necropsy, homogenized, and analyzed. On average, mice treated with Compound 1205 at 0.5 mg/kg were on study for 28 days, and mice treated with Compound 1205 at 3 mg/kg were on study for 32 days.

[2] = tested on: hypoxia-induced VEGF production in HeLa cells; assay: cells; assay type: cell-based, human; conditions: for EC50: Homo sapiens, HeLa
[3] = Solubility in water
[4] = tested on: human VEGF; assay: Intra-tumor and plasma human VEGF in HT1080 xenograft mice (ELISA); assay type: in vivo; conditions: for Mean difference in human plasma VEGF (%) on Day 14 / Mean difference in human tumor VEGF (%) at Day 14: 14 days
From the text: Human HT1080 cells (5×10^6 cells/mice) were implanted subcutaneously into male athymic nude mice. Human HT1080 cells constitutively produce human VEGF. Treatment with vehicle alone or Compound 1205 was initiated when the median tumor volume was approximately 311±88 mm^3. Table 3 and Table 4 provide the study design for assessing tumor and pathological plasma VEGF concentrations—each group in each study included eight (8) mice. When the tumors in vehicle-treated mice had reached the target size of about 1200 mm^3 for study #21 and about 1500 mm^3 for study #23, all mice in the study were sacrificed, and excised tumors were homogenized in buffer containing protease inhibitors. Both intra-tumor and plasma human VEGF levels were measured using an ELISA that recognizes human VEGF121 and VEGF165. Intra-tumor VEGF levels were normalized to the total tumor protein concentration and plasma VEGF levels were expressed in pg/mL. Because smaller tumors produce less VEGF per mg of tumor protein, intra-tumor VEGF levels were normalized to tumor size.

[5] = tested on: HT1080 cells; assay: Cell cycle analysis of HT1080 cells (propidium iodide, flow cytometry); assay type: cell-based, human; conditions: 10 nM, 18 hours, normoxic conditions; in words
Experimental: During the in vitro evaluation of Compound 1205 effects on VEGF expression, an examination of its actions on tumor cell cycling was performed. HT1080 cells were incubated under normoxic conditions (21% oxygen) for 18 hours with vehicle (0.5% DMSO) alone, or with 10 nM of Compound 1205. After treatment, cells were trypsinized, and stained with propidium iodide (PI) dye to measure DNA content of individual cells by flow cytometry. Output comprised histograms showing relative DNA content in 10,000 cells.

[6] = tested on: HT1080 xenografts; assay: HT1080 xenograft tumor growth in male athymic nude mice; assay type: in vivo; conditions: for Growth of HT1080 tumors in vivo (FIG. 4): study #24a, in words
From the text: Experimental Design. HT1080 cells (5×10^6 cells/mouse) were implanted subcutaneously in male athymic nude mice. […] For comparison, Compound #10 was included in this study.

[7] = Bioavailability in vivo of aqueous suspension; conditions: in words
From the text: It is anticipated that Compound 1205 can be clinically administered via a solid-dosage form. For all the studies outlined herein, Compound 1205 was lyophilized prior to formulation to minimize batch-to-batch variations in particle-size.

[8] = Plasma trough levels in patients having a variety of cancers; assay type: in vivo, human; conditions: combination therapy with Compound #10; in words

O=C(Oc1ccc(Cl)cc1)N1CCc2c([nH]c3ccc(Cl)cc23)[C@@H]1c1ccc(OCC[C@H](O)CO)cc1 [Compound 1205]
Murine kidney VEGF levels (FIG. 6) [1]: did not significantly decrease murine kidney VEGF levels | Inhibition of stress-induced VEGF production (FIG. 1) [2]: inhibit stress-induced VEGF production | EC50 [2]: < 8 nM | solubility [3]: ~1 µg/mL (≈ 1.85 µM) | Inhibition of plasma VEGF levels ([4]; 0.5 or 3 mg/kg QD): more than 95% | Inhibition of tumor VEGF levels ([4]; 0.5 or 3 mg/kg QD): more than 95% | Mean difference in human plasma VEGF (%) on Day 14 ([4]; Study #21, 0.5 mg/kg QD): 97%** | Mean difference in human tumor VEGF (%) at Day 14 ([4]; Study #21, 0.5 mg/kg QD): 95%** | Mean difference in human plasma VEGF (%) on Day 14 ([4]; Study #21, 3 mg/kg QD): 99% | Mean difference in human tumor VEGF (%) at Day 14 ([4]; Study #21, 3 mg/kg QD): 98%** | Mean difference in human plasma VEGF (%) on Day 14 ([4]; Study #23, 1 mg/kg QD): 100%** | Mean difference in human tumor VEGF (%) at Day 14 ([4]; Study #23, 1 mg/kg QD): 95** % | Volume normalized intra-tumor VEGF levels ([4]; treated groups vs vehicle, in words): significantly reduced | Cell cycle distribution (relative DNA content, FIG. 5) [5]: induced a redistribution of the cycling characteristics of the cell population | Lowest dose at which active ([6]; HT1080 xenograft): ≤ 0.3 mg/kg | Mean difference in tumor growth rate at the Day that the vehicle-treated tumors taken off study (%) ([6]; Study 21, 0.5 mg/kg QD, Day 14): 61%** | Final mean terminal tumor size in treatment group (mm^3) ([6]; Study 21, 0.5 mg/kg QD, administered 14 days): 580 mm^3 | Mean difference in tumor growth rate at the Day that the vehicle-treated tumors taken off study (%) ([6]; Study 21, 3 mg/kg QD, Day 14): 80%** | Final mean terminal tumor size in treatment group (mm^3) ([6]; Study 21, 3 mg/kg QD, administered 14 days): 379 mm^3 | Difference vs. vehicle in median number of days to reach 1000 mm^3, ([6]; Study 22, 0.5 mg/kg QD): 11 days | Mean difference in tumor growth rate at the Day that the vehicle-treated tumors taken off study (%) ([6]; Study 22, 0.5 mg/kg QD, Day 11): 62%** | Final mean terminal tumor size in treatment group (mm^3) ([6]; Study 22, 0.5 mg/kg QD, administered 28 days): 1750 mm^3 | Difference vs. vehicle in median number of days to reach 1000 mm^3, (Days) ([6]; Study 22, 3 mg/kg QD): 14** Days | Mean difference in tumor growth rate at the Day that the vehicle-treated tumors taken off study (%) ([6]; Study 22, 3 mg/kg QD, Day 11): 75%** | Final mean terminal tumor size in treatment group (mm^3) ([6]; Study 22, 3 mg/kg QD, administered 32 days): 1840 mm^3 | Mean difference in tumor growth rate at the Day that the vehicle-treated tumors taken off study (%) ([6]; Study 23, 1 mg/kg QD, Day 14): 59%** | Final mean terminal tumor size in treatment group (mm^3) ([6]; Study 23, 1 mg/kg QD, administered 14 days): 710 mm^3 | Difference vs. vehicle in median number of days to reach 1000 mm^3, (Days) ([6]; Study 24a, 10 mg/kg QD, Compound 1205 column): 14** Days | Mean difference in tumor growth rate at the Day that the vehicle-treated tumors taken off study (%) ([6]; Study 24a, 10 mg/kg QD, Day 11, Compound 1205 column): 76%** | Final mean terminal tumor size in treatment group (mm^3) ([6]; Study 24a, 10 mg/kg QD, administered 30 days): 1400 mm^3 | Difference vs. vehicle in median number of days to reach 1000 mm^3, ([6]; Study 24b, 0.3 mg/kg QD): 0.7 days | Mean difference in tumor growth rate at the Day that the vehicle-treated tumors taken off study (%) ([6]; Study 24b, 0.3 mg/kg QD, Day 15): 28% | Final mean terminal tumor size in treatment group (mm^3) ([6]; Study 24b, 0.3 mg/kg QD, administered 16 days): 1540 mm^3 | Growth of HT1080 tumors in vivo (FIG. 4) ([6]; 10 mg/kg QD): significantly delayed growth of HT1080 tumor cells in vivo | Bioavailability [7]: bioavailable in vivo

O=C(Oc1ccc(Cl)cc1)N1CCc2c([nH]c3ccc(Cl)cc23)[C@H]1c1ccc(OCC[C@H](O)CO)cc1 [Compound 1330]
EC50 [2]: > 1000 nM | Growth of HT1080 tumors in vivo (FIG. 4) ([6]; 10 mg/kg QD): overlapped with the growth of tumors in mice treated with 0.5% HPMC vehicle

CC(=O)O[C@@]12CO[C@@H]1C[C@H](O)[C@@]1(C)C(=O)[C@H](O)C3=C(C)[C@@H](OC(=O)[C@H](O)[C@@H](NC(=O)OC(C)(C)C)c4ccccc4)C[C@@](O)([C@@H](OC(=O)c4ccccc4)[C@H]21)C3(C)C [docetaxel]
PK profile (FIG. 18) [8]: consistent with historical data
